Laboratory results published in ChEMBL document CHEMBL3526033, “Identification of human liver cytochrome P450 enzymes involved in the metabolism of SCH 530348 (Vorapaxar), a potent oral thrombin protease-activated receptor 1 antagonist” (Drug Metab Dispos, 2011).
Each block holds one compound with its values, some of them ahead of it.

Columns and labels:
[1] = biological target: Cytochrome P450 2C18 (Homo sapiens, UniProt P33260); assay: Activity of human recombinant CYP2C18 assessed as enzyme-mediated 2-hydroxyethyl (1R,3aR,4aR,6R,8aR,9S,9aS)-9-((E)-2-(5-(3-fluorophenyl)pyridin-2-yl)vinyl)-1-methyl-3-oxododecahydronaphtho[2,3-c]furan-6-ylcarbamate formation at 25 uM after 120 mins by LC-MS/MS analysis in presence of NADPH; type: ADME; details: 2 h
Cytochrome P450 2C18, sequence (P33260 whole entry): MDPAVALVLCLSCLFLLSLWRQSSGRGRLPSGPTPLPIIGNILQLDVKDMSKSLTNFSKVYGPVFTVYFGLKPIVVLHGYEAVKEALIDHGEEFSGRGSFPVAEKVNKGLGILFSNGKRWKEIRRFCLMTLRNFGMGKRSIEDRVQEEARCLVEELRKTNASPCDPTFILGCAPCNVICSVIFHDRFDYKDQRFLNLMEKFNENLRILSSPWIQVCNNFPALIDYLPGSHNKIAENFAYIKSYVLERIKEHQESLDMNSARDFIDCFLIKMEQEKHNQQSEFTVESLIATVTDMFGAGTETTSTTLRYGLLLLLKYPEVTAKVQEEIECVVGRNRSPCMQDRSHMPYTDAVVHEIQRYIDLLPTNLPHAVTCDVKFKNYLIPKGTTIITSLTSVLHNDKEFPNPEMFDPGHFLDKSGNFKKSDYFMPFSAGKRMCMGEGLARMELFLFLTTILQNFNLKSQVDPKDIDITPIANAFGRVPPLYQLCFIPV

[2] = biological target: T1, Cytochrome P450 4F3 (Homo sapiens, UniProt Q08477); assay: Activity of human recombinant CYP4F3B assessed as enzyme-mediated 2-hydroxyethyl (1R,3aR,4aR,6R,8aR,9S,9aS)-9-((E)-2-(5-(3-fluorophenyl)pyridin-2-yl)vinyl)-1-methyl-3-oxododecahydronaphtho[2,3-c]furan-6-ylcarbamate formation at 25 uM after 120 mins by LC-MS/MS analysis in presence of NADPH; type: ADME; details: 2 h
T1 sequence (Q08477 whole entry): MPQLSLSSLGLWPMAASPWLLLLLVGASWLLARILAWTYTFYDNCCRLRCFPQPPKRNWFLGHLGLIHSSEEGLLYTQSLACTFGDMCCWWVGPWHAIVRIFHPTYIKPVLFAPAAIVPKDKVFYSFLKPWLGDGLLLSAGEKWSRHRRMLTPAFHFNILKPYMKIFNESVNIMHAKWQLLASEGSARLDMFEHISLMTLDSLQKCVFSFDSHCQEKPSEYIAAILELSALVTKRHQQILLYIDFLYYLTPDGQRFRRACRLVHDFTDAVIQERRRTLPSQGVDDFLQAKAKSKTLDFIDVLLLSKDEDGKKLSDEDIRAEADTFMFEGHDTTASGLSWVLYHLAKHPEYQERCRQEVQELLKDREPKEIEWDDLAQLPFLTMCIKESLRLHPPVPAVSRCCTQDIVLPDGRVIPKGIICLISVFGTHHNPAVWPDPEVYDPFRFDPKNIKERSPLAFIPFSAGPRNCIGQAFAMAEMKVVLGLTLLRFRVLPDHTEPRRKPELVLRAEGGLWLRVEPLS

[3] = biological target: Cytochrome P450 4F12 (Homo sapiens, UniProt Q9HCS2); assay: Activity of human recombinant CYP4F12 assessed as enzyme-mediated 2-hydroxyethyl (1R,3aR,4aR,6R,8aR,9S,9aS)-9-((E)-2-(5-(3-fluorophenyl)pyridin-2-yl)vinyl)-1-methyl-3-oxododecahydronaphtho[2,3-c]furan-6-ylcarbamate formation at 25 uM after 120 mins by LC-MS/MS analysis in presence of NADPH; type: ADME; details: 2 h
Cytochrome P450 4F12, sequence (Q9HCS2 whole entry): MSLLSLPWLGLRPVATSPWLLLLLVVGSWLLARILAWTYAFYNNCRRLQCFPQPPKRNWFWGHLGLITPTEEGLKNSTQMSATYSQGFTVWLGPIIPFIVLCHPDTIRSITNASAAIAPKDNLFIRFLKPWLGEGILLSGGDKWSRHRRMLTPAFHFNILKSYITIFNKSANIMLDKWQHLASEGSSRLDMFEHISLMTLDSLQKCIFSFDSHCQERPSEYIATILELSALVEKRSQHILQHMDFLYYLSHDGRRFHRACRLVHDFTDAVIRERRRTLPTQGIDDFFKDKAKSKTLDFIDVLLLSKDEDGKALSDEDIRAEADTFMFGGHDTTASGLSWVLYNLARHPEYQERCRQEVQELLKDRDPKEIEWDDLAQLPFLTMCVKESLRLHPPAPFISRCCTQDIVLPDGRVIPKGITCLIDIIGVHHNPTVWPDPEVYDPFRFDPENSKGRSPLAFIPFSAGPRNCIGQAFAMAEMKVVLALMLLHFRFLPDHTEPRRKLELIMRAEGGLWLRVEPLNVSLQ

[4] = system: Liver microsome; assay: Drug metabolism in human liver microsomes assessed as (3R,3aS,4S,4aR,7R,8aR,9aR)-7-amino-4-((E)-2-(5-(3-fluorophenyl)pyridin-2-yl)vinyl)-3-methyldecahydronaphtho[2,3-c]furan-1(3H)-one formation per nmol of enzyme at 25 uM after 120 mins by LC-MS/MS analysis; type: ADME; details: 2 h
[5] = biological target: Cytochrome P450 2C19 (Homo sapiens, UniProt P33261); assay: Activity of human recombinant CYP2C19 assessed as enzyme-mediated 2-hydroxyethyl (1R,3aR,4aR,6R,8aR,9S,9aS)-9-((E)-2-(5-(3-fluorophenyl)pyridin-2-yl)vinyl)-1-methyl-3-oxododecahydronaphtho[2,3-c]furan-6-ylcarbamate formation at 25 uM after 120 mins by LC-MS/MS analysis in presence of NADPH; type: ADME; details: 2 h
Cytochrome P450 2C19, sequence (P33261 whole entry): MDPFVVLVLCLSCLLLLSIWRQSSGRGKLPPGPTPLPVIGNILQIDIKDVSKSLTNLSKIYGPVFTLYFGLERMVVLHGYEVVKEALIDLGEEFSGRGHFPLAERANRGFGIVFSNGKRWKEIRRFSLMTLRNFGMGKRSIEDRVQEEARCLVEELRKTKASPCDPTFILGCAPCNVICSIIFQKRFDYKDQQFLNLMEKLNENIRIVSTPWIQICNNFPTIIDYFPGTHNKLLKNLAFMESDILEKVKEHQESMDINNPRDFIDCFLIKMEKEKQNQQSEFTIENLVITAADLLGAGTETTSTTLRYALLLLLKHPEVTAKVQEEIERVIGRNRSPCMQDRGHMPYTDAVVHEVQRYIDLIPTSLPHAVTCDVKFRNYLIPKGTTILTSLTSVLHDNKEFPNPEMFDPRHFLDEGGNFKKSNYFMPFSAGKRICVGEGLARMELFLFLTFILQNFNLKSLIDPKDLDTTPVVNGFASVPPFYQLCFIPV

[6] = biological target: Cytochrome P450 1B1 (Homo sapiens, UniProt Q16678); assay: Activity of human recombinant CYP1B1 assessed as enzyme-mediated 2-hydroxyethyl (1R,3aR,4aR,6R,8aR,9S,9aS)-9-((E)-2-(5-(3-fluorophenyl)pyridin-2-yl)vinyl)-1-methyl-3-oxododecahydronaphtho[2,3-c]furan-6-ylcarbamate formation at 25 uM after 120 mins by LC-MS/MS analysis in presence of NADPH; type: ADME; details: 2 h
Cytochrome P450 1B1, sequence (Q16678 whole entry): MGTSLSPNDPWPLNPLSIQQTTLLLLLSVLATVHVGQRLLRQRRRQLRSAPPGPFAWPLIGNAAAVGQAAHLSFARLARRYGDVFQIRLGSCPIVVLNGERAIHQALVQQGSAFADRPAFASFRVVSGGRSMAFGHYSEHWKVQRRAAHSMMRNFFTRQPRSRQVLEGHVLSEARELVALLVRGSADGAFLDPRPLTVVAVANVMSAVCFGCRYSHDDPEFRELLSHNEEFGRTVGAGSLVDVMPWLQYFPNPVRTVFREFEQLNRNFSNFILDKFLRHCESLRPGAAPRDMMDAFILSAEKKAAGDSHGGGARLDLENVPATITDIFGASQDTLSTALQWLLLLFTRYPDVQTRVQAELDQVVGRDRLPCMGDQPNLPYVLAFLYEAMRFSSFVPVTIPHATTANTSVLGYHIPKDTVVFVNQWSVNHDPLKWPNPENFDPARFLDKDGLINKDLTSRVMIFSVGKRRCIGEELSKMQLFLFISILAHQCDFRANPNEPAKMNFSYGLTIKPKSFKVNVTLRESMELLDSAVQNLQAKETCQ

[7] = biological target: T2, Cytochrome P450 2J2 (Homo sapiens, UniProt P51589); assay: Drug metabolism in human liver microsomes assessed as CYP2J2-mediated (3R,3aS,4S,4aR,7R,8aR,9aR)-7-amino-4-((E)-2-(5-(3-fluorophenyl)pyridin-2-yl)vinyl)-3-methyldecahydronaphtho[2,3-c]furan-1(3H)-one formation at 25 uM after 120 mins by LC-MS/MS analysis; type: ADME; details: 2 h
T2 sequence (P51589 whole entry): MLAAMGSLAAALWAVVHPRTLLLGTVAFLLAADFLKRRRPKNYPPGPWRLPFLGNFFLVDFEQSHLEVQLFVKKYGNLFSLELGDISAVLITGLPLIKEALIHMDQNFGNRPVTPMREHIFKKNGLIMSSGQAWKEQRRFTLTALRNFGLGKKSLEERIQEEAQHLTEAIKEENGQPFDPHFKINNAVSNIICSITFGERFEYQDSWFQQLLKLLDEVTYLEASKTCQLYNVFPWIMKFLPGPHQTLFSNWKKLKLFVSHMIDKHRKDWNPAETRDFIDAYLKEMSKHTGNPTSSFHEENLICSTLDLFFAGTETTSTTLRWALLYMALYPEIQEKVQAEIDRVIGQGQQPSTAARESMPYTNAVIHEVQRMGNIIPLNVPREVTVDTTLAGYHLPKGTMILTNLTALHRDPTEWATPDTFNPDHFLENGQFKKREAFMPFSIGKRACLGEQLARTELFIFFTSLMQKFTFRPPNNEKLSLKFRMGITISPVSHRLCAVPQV

[8] = biological target: Cytochrome P450 2E1 (Homo sapiens, UniProt P05181); assay: Activity of human recombinant CYP2E1 assessed as enzyme-mediated drug metabolism treated with 25 uM vorapaxar after 120 mins by LC-MS/MS analysis in presence of NADPH; type: ADME; details: 2 h
Cytochrome P450 2E1, sequence (P05181 whole entry): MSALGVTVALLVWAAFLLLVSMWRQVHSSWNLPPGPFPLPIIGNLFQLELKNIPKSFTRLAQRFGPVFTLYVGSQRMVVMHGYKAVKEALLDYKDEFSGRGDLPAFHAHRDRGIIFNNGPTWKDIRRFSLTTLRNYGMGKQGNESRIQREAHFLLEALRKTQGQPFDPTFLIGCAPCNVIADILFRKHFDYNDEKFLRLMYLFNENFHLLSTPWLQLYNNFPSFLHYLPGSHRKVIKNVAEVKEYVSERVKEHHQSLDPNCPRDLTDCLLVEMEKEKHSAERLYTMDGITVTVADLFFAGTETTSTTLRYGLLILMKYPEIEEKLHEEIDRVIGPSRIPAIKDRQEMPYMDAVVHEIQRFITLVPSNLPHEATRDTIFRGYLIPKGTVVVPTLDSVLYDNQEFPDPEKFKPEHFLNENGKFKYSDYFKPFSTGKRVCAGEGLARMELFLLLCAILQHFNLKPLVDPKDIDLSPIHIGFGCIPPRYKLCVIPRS

[9] = system: Liver microsome; assay: Drug metabolism in human liver microsomes assessed as (3R,3aS,4S,4aR,7R,8aR,9aR)-7-amino-4-((E)-2-(5-(3-fluorophenyl)pyridin-2-yl)vinyl)-3-methyldecahydronaphtho[2,3-c]furan-1(3H)-one formation at 10 to 25 uM after 120 mins by LC-MS/MS analysis in presence of ketoconazole; type: ADME; details: 2 h
[10] = biological target: CYP3A4 (Homo sapiens, UniProt P08684); assay: Activity of human recombinant CYP3A4 assessed as enzyme-mediated drug metabolism at 10 uM after 120 mins by LC-MS/MS analysis in presence of NADPH; type: ADME; details: read-out: Compound recovery
CYP3A4, sequence (P08684 whole entry): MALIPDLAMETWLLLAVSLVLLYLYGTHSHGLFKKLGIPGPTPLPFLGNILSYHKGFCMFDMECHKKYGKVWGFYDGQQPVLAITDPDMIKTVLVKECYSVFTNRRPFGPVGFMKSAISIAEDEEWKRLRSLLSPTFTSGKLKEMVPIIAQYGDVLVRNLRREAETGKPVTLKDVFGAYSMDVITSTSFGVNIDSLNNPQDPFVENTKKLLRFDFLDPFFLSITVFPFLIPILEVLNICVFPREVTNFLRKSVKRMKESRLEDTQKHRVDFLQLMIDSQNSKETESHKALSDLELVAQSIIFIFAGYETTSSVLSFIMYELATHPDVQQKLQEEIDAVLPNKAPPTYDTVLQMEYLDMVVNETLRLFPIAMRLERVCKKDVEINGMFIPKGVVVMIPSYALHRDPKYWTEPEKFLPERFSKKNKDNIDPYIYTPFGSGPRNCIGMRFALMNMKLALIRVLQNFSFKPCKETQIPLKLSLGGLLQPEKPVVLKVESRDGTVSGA

[11] = biological target: CYP2C9 (Homo sapiens, UniProt P11712); assay: Activity of human recombinant CYP2C9 assessed as enzyme-mediated drug metabolism at 10 uM after 120 mins by LC-MS/MS analysis in presence of NADPH; type: ADME; details: read-out: Compound recovery
CYP2C9, sequence (P11712 whole entry): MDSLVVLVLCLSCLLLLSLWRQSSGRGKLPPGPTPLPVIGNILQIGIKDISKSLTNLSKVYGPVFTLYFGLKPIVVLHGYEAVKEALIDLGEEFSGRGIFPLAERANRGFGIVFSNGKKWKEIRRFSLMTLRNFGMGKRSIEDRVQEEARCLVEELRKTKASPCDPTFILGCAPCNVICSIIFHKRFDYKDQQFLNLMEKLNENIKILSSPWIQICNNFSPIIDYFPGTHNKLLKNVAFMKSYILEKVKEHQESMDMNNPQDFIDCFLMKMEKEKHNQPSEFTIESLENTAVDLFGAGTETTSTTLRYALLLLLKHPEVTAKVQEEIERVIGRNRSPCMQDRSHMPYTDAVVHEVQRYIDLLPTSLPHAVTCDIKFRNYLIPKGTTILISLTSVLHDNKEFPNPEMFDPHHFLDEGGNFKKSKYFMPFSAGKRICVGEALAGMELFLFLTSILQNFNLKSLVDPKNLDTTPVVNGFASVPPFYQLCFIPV

[12] = system: Liver microsome; assay: Drug metabolism in human liver microsomes assessed as (3R,3aS,4S,4aR,7R,8aR,9aR)-7-amino-4-((E)-2-(5-(3-fluorophenyl)pyridin-2-yl)vinyl)-3-methyldecahydronaphtho[2,3-c]furan-1(3H)-one formation at 10 to 25 uM after 120 mins by LC-MS/MS analysis in presence of orphenadrine; type: ADME; details: 2 h
[13] = Drug metabolism in human lung microsomes assessed as 2-hydroxyethyl (1R,3aR,4aR,6R,8aR,9S,9aS)-9-((E)-2-(5-(3-fluorophenyl)pyridin-2-yl)vinyl)-1-methyl-3-oxododecahydronaphtho[2,3-c]furan-6-ylcarbamate formation at 25 uM after 120 mins by LC-MS/MS analysis in presence of NADPH; type: ADME, microsome; details: 2 h

Drug metabolism [1]: metabolite_detected
Drug metabolism [2]: metabolite_detected
Drug metabolism [3]: metabolite_detected
Vmax [4]: 30 pmol/min
Drug metabolism [5]: metabolite_detected
Drug metabolism [6]: metabolite_detected
Compound: CCOC(=O)N[C@@H]1CC[C@@H]2[C@@H](C1)C[C@H]1C(=O)O[C@H](C)[C@H]1[C@H]2/C=[14CH]/c1ccc(-c2cccc(F)c2)cn1

Drug metabolism [7]: metabolite_detected
Drug metabolism [8]: metabolite_detected
Compound: C[C@H]1OC(=O)[C@@H]2C[C@@H]3C[C@H](NC(=O)OCCO)CC[C@H]3[C@H](/C=C/c3ccc(-c4cccc(F)c4)cn3)[C@H]12

Drug metabolism [9]: metabolite_not_detected
remaining at 2 h, 10 µM [10]: 72.5%
remaining at 2 h, 10 µM [11]: 98.8%
Drug metabolism [12]: metabolite_not_detected
Drug metabolism [13]: metabolite_detected
Compound: CCOC(=O)N[C@@H]1CC[C@@H]2[C@@H](C1)C[C@H]1C(=O)O[C@H](C)[C@H]1[C@H]2/C=C/c1ccc(-c2cccc(F)c2)cn1 [VORAPAXAR]
